Measurements from patent US11053204B2, “Pyrimidinyloxy benzene derivatives as herbicides” (FMC Corporation, priority 2015, dated 2021).

Tests used:
Assay in all cases: Test C preemergence, plant response rating
Assay type in all cases: in vivo
[1] = system: oilseed rape (Brassica napus); conditions: Brassica napus, pre-emergence, Preemergence
Text: (§1) Seeds of plant species selected from blackgrass (Alopecurus myosuroides), ryegrass, Italian (Italian ryegrass, Lolium multiflorum), wheat (winter wheat, Triticum aestivum), galium (catchweed bedstraw, Galium aparine), corn (Zea mays), crabgrass, large (large crabgrass, Digitaria sanguinalis), foxtail, giant (giant foxtail, Setaria faberii), johnsongrass (Sorghum halepense), lambsquarters (Chenopodium album), morningglory (Ipomoea coccinea), nutsedge, yellow (yellow nutsedge, Cyperus esculentus), pigweed (Amaranthus retroflexus), ragweed (common ragweed, Ambrosia elatior), soybean (Glycine max), barnyardgrass (Echinochloa crus-galli), oilseed rape (Brassica napus), pigweed, palmer (palmer pigweed, Amaranthus palmeri), waterhemp (common waterhemp, Amaranthus rudis), velvetleaf (Abutilon theophrasti), kochia (Kochia scoparia), surinam grass (Brachiaria decumbens), nightshade (eastern black nightshade, Solanum ptycanthum), wild poinsettia (Euphorbia heterophylla), windgrass (Apera spica-venti), and oat, wild (wild oat Avena fatua), were planted into a blend of loam soil and sand or a silt loam soil and treated preemergence with test chemicals formulated in a non-phytotoxic solvent mixture which included a surfactant.
(§2) At the same time, plants selected from these crop and weed species and also chickweed (common chickweed, Stellaria media), buckwheat, wild (wild buckwheat, Polygonum convolvulus), wild mustard (Sinapis arvensis), field poppy (Papaver rhoeas), field violet (Viola arvensis), geranium, cutleaf (cutleaf geranium, Geranium dissectum), Canada thistle (Cirsium arvense), and speedwell (bird's-eye speedwell, Veronica persica), were planted in pots containing Sunshine Redi-Earth® planting medium comprising spaghnum peat moss, vermiculite, starter nutrients and dolomitic limestone and treated with postemergence applications of test chemicals formulated in the same manner. Plants ranged in height from 2 to 18 cm (1- to 4-leaf stage) for postemergence treatments. Treated plants and controls were maintained in a greenhouse for 13 to 15 d, after which time all species were compared to controls and visually evaluated. Plant response ratings, summarized in Table C, are based on a scale of 0 to 100 where 0 is no effect and 100 is complete control. A dash (-) response means no test result.

[2] = system: nutsedge, yellow (yellow nutsedge, Cyperus esculentus); conditions: Cyperus, pre-emergence, Preemergence
Text: as §1, §2

[3] = system: morningglory (Ipomoea coccinea); conditions: Ipomoea, pre-emergence, Preemergence
Text: as §1, §2

corn (Zea mays) = conditions: Zea mays, pre-emergence, Preemergence
Text: as §1, §2

soybean (Glycine max) = conditions: Glycine max, pre-emergence, Preemergence
Text: as §1, §2

[4] = system: blackgrass (Alopecurus myosuroides); conditions: Alopecurus myosuroides, pre-emergence, Preemergence
Text: as §1, §2

[5] = system: ragweed (common ragweed, Ambrosia elatior); conditions: Ambrosia artemisiifolia, pre-emergence, Preemergence
Text: as §1, §2

[6] = system: velvetleaf (Abutilon theophrasti); conditions: Abutilon theophrasti, pre-emergence, Preemergence
Text: as §1, §2

[7] = system: waterhemp (common waterhemp, Amaranthus rudis); conditions: Amaranthus tuberculatus, pre-emergence, Preemergence
Text: as §1, §2

[8] = system: ryegrass, Italian (Italian ryegrass, Lolium multiflorum); conditions: Lolium multiflorum, pre-emergence, Preemergence
Text: as §1, §2

[9] = system: wheat (winter wheat, Triticum aestivum); conditions: Triticum aestivum, pre-emergence, Preemergence
Text: as §1, §2

[10] = system: foxtail, giant (giant foxtail, Setaria faberii); conditions: Setaria faberi, pre-emergence, Preemergence
Text: as §1, §2

[11] = system: crabgrass, large (large crabgrass, Digitaria sanguinalis); conditions: Digitaria sanguinalis, pre-emergence, Preemergence
Text: as §1, §2

[12] = system: lambsquarters (Chenopodium album); conditions: Chenopodium album, pre-emergence, Preemergence
Text: as §1, §2

[13] = system: pigweed (Amaranthus retroflexus); conditions: Preemergence

In the case of `CC(CC(F)(F)F)OC(=O)c1c(Br)cccc1Oc1ncc(Cl)cn1` (stereo not drawn) [Compound 16, 3,3,3-trifluoro-1-methylpropyl 2-bromo-6-[(5-chloro-2-pyrimidinyl)oxy]benzoate], the plant injury at 125 g/ha ([1]; 125 g ai/ha, scale of 0 to 100) is reported as 100%, the plant injury at 16 g/ha ([1]; 16 g ai/ha, scale 0 to 100) is reported as 0% and the plant injury at 31 g/ha ([1]; 31 g ai/ha, scale 0 to 100) is reported as 50%. It also gave a plant injury at 62 g/ha ([1]; 62 g ai/ha, scale 0 to 100) of 60%, a pest or weed control at 125 g/ha ([2]; 125 g ai/ha, scale of 0 to 100) of 0% and a pest or weed control at 16 g/ha ([2]; 16 g ai/ha, scale 0 to 100) of 0%. The pest or weed control at 31 g/ha ([2]; 31 g ai/ha, scale 0 to 100) was 0%, the pest or weed control at 62 g/ha ([2]; 62 g ai/ha, scale 0 to 100) was 0% and the pest or weed control at 125 g/ha ([3]; 125 g ai/ha, scale of 0 to 100) was 25%. It also gave a pest or weed control at 16 g/ha ([3]; 16 g ai/ha, scale 0 to 100) of 10%, a pest or weed control at 31 g/ha ([3]; 31 g ai/ha, scale 0 to 100) of 0% and a pest or weed control at 62 g/ha ([3]; 62 g ai/ha, scale 0 to 100) of 25%. The Corn plant response rating (crop injury, 0 = no effect, 100 = complete kill) at 62 g/ha (corn (Zea mays); 62 g ai/ha, scale of 0 to 100) was 0%, the Corn plant response rating (crop injury, 0 = no effect, 100 = complete kill) at 125 g/ha (corn (Zea mays); 125 g ai/ha, scale of 0 to 100) was 10% and the Corn plant response rating (crop injury, 0 = no effect, 100 = complete kill) at 16 g/ha (corn (Zea mays); 16 g ai/ha, scale 0 to 100) was 0%. It also gave a Corn plant response rating (crop injury, 0 = no effect, 100 = complete kill) at 31 g/ha (corn (Zea mays); 31 g ai/ha, scale 0 to 100) of 0%, a plant injury at 125 g/ha (soybean (Glycine max); 125 g ai/ha, scale of 0 to 100) of 5% and a plant injury at 16 g/ha (soybean (Glycine max); 16 g ai/ha, scale 0 to 100) of 0%. It also gave a plant injury at 31 g/ha (soybean (Glycine max); 31 g ai/ha, scale 0 to 100) of 0%, a plant injury at 62 g/ha (soybean (Glycine max); 62 g ai/ha, scale 0 to 100) of 0% and a pest or weed control at 62 g/ha ([4]; 62 g ai/ha, scale of 0 to 100) of 5%. It also gave a pest or weed control at 125 g/ha ([4]; 125 g ai/ha, scale of 0 to 100) of 10%, a pest or weed control at 16 g/ha ([4]; 16 g ai/ha, scale 0 to 100) of 0% and a pest or weed control at 31 g/ha ([4]; 31 g ai/ha, scale 0 to 100) of 0%. It also gave a pest or weed control at 125 g/ha ([5]; 125 g ai/ha, scale of 0 to 100) of 0%, a pest or weed control at 16 g/ha ([5]; 16 g ai/ha, scale 0 to 100) of 0% and a pest or weed control at 31 g/ha ([5]; 31 g ai/ha, scale 0 to 100) of 0%. The pest or weed control at 62 g/ha ([5]; 62 g ai/ha, scale 0 to 100) was 5%, the pest or weed control at 125 g/ha ([6]; 125 g ai/ha, scale of 0 to 100) was 75% and the pest or weed control at 16 g/ha ([6]; 16 g ai/ha, scale 0 to 100) was 0%. It also gave a pest or weed control at 31 g/ha ([6]; 31 g ai/ha, scale 0 to 100) of 5%, a pest or weed control at 62 g/ha ([6]; 62 g ai/ha, scale 0 to 100) of 50% and a pest or weed control at 125 g/ha ([7]; 125 g ai/ha, scale of 0 to 100) of 100%. The pest or weed control at 16 g/ha ([7]; 16 g ai/ha, scale 0 to 100) was 10%, the pest or weed control at 31 g/ha ([7]; 31 g ai/ha, scale 0 to 100) was 60% and the pest or weed control at 62 g/ha ([7]; 62 g ai/ha, scale 0 to 100) was 85%. The pest or weed control at 125 g/ha ([8]; 125 g ai/ha, scale of 0 to 100) was 5%, the pest or weed control at 16 g/ha ([8]; 16 g ai/ha, scale 0 to 100) was 0% and the pest or weed control at 31 g/ha ([8]; 31 g ai/ha, scale 0 to 100) was 0%. It also gave a pest or weed control at 62 g/ha ([8]; 62 g ai/ha, scale 0 to 100) of 5%, a plant injury at 125 g/ha ([9]; 125 g ai/ha, scale of 0 to 100) of 0% and a plant injury at 16 g/ha ([9]; 16 g ai/ha, scale 0 to 100) of 0%. The plant injury at 31 g/ha ([9]; 31 g ai/ha, scale 0 to 100) was 0%, the plant injury at 62 g/ha ([9]; 62 g ai/ha, scale 0 to 100) was 0% and the pest or weed control at 62 g/ha ([10]; 62 g ai/ha, scale of 0 to 100) was 90%. The pest or weed control at 125 g/ha ([10]; 125 g ai/ha, scale of 0 to 100) was 100%, the pest or weed control at 16 g/ha ([10]; 16 g ai/ha, scale 0 to 100) was 5% and the pest or weed control at 31 g/ha ([10]; 31 g ai/ha, scale 0 to 100) was 25%. For the same compound, the pest or weed control at 62 g/ha ([11]; 62 g ai/ha, scale of 0 to 100) was 90%, the pest or weed control at 125 g/ha ([11]; 125 g ai/ha, scale of 0 to 100) was 100% and the pest or weed control at 16 g/ha ([11]; 16 g ai/ha, scale 0 to 100) was 5%. For the same compound, the pest or weed control at 31 g/ha ([11]; 31 g ai/ha, scale 0 to 100) was 75%, the pest or weed control at 125 g/ha ([12]; 125 g ai/ha, scale of 0 to 100) was 50% and the pest or weed control at 16 g/ha ([12]; 16 g ai/ha, scale 0 to 100) was 0%. The pest or weed control at 31 g/ha ([12]; 31 g ai/ha, scale 0 to 100) was 20%, the pest or weed control at 62 g/ha ([12]; 62 g ai/ha, scale 0 to 100) was 20% and the “Plant response rating, Pigweed” value ([13]; 125 g ai/ha, scale of 0 to 100) was 95. The “Plant response rating, Pigweed” value ([13]; 16 g ai/ha, scale 0 to 100) was 0, the “Plant response rating, Pigweed” value ([13]; 31 g ai/ha, scale 0 to 100) was 0 and the “Plant response rating, Pigweed” value ([13]; 62 g ai/ha, scale 0 to 100) was 50.
